Source: patent US20160220609A1, “REGULATION OF STEROIDOGENIC ACTIVITY BY USING PURIFIED SHILAJIT” (NATREON, INC., priority 2013, published 2016)

Test system: steroidogenic genes in mouse skeletal muscle
Experiment: Gene expression profiling (Affymetrix GeneChip) of skeletal muscle of mice supplemented for 12 weeks
Assay type: in vivo
Details: 10 mg/kg body weight intragastric in DMSO/corn oil
Description: Procedure for Studies in Mice Using Shilajit and DBPs:
Three groups of adult mice (n=8) were intragastrically supplemented with purified Shilajit (PS), 3,8-(OH)2-DBP, or placebo for 12 weeks. At the end of week 12, skeletal muscle tissue was harvested for gene profiling. Some tissue was stored for histology and HPLC analysis.
The control group of mice received DMSO in corn oil while the PS group received 100 mg of purified Shilajit/kg body weight of mice, dissolved in water and the DBP group received 10 mg of 3,8-(OH)2-DBP/kg body weight of mice, dissolved in DMSO/corn oil.
At week 12, the following tissues were collected from mice: heart, lung, liver, brain, muscles, adipose tissue, skeletal muscle (vastus lateralis) and whole blood.
Gene Expression Profiling using GeneChip® Assay
Affymetrix GeneChip® technology (Affymetrix, Santa Clara, Calif.) was used for transcriptome profiling of skeletal muscle tissue. Gene chip assays were performed in accordance with the following references: Roy, S., Biswas, S., Khanna, S., Gordillo, G., Bergdall, V., Green, J., Marsh, C. B., Gould, L. J., Sen, C. K., “Characterization of a preclinical model of chronic ischemic wound,” Physiol. Genomics (2009) May 13; 37(3):211-24; Roy, S., Khanna, S., Rink, C., Biswas, S., Sen, C. […]

**Q.** O=c1oc2cc(O)ccc2c2ccc(O)cc12 [3,8-(OH)2-DBP, 3,8-dihydroxy-dibenzo-a-pyrone] was tested. Which “Effect on steroidogenic activity in mice” value did it give?
**A.** Its value is “did not show significant effect”.
